How the values were obtained:
Assay in all cases: relative viability (nuclei count vs DMSO), 5 days (fraction); higher = more cells survive
R406 + Luminespib = compound: COc1cc(Nc2ncc(F)c(Nc3ccc4c(n3)NC(=O)C(C)(C)O4)n2)cc(OC)c1OC [R406] + CCNC(=O)c1noc(-c2cc(C(C)C)c(O)cc2O)c1-c1ccc(CN2CCOCC2)cc1 [Luminespib] (partner 0.01 µM)
Method in brief: (§1)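 Values are medians from duplicate plates. Each reflects relative viability, defined as the nuclei count of treated wells over that of vehicle wells. Lung cancer cell lines in 1536-well plates were pin-tool dosed one day after seeding with one drug alone or with a fixed anchor-drug dose plus five library-drug doses (not always all listed) in √10 steps, then fixed, stained and imaged at 4× after 5 days.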

R406 + Phenformin = compound: COc1cc(Nc2ncc(F)c(Nc3ccc4c(n3)NC(=O)C(C)(C)O4)n2)cc(OC)c1OC [R406] + N=C(N)NC(=N)NCCc1ccccc1 [Phenformin] (partner 250 µM)
Method in brief: as §1

R406 + Decitabine = compound: COc1cc(Nc2ncc(F)c(Nc3ccc4c(n3)NC(=O)C(C)(C)O4)n2)cc(OC)c1OC [R406] + Nc1ncn([C@H]2C[C@H](O)[C@@H](CO)O2)c(=O)n1 [Decitabine] (partner 2 µM)
Method in brief: as §1

Daporinad + Linsitinib = compound: O=C(/C=C/c1cccnc1)NCCCCC1CCN(C(=O)c2ccccc2)CC1 [Daporinad] + C[C@]1(O)C[C@@H](c2nc(-c3ccc4ccc(-c5ccccc5)nc4c3)c3c(N)nccn32)C1 [Linsitinib] (partner 1 µM)
Method in brief: as §1

Cell Line | relative viability (R406 + Luminespib; first compound 0.08 µM) | relative viability (R406 + Luminespib; first compound 0.253 µM) | relative viability (R406 + Luminespib; first compound 0.8 µM) | relative viability (R406 + Luminespib; first compound 2.53 µM) | relative viability (R406 + Luminespib; first compound 8 µM) | relative viability (R406 + Phenformin; first compound 0.08 µM) | relative viability (R406 + Phenformin; first compound 0.253 µM) | relative viability (R406 + Phenformin; first compound 0.8 µM) | relative viability (R406 + Phenformin; first compound 2.53 µM) | relative viability (R406 + Phenformin; first compound 8 µM) | relative viability (R406 + Decitabine; first compound 0.08 µM) | relative viability (R406 + Decitabine; first compound 0.253 µM) | relative viability (R406 + Decitabine; first compound 0.8 µM) | relative viability (R406 + Decitabine; first compound 2.53 µM) | relative viability (R406 + Decitabine; first compound 8 µM) | relative viability (Daporinad + Linsitinib; first compound 0.0005 µM) | relative viability (Daporinad + Linsitinib; first compound 0.001581 µM) | relative viability (Daporinad + Linsitinib; first compound 0.005 µM) | relative viability (Daporinad + Linsitinib; first compound 0.01581 µM)
NCI-H1755 | 0.351 | 0.459 | 0.255 | 0.211 | 0.334 | 0.602 | 0.651 | 0.621 | 0.374 | 0.429 | 0.652 | 0.707 | 0.676 | 0.733 | 0.679 | 1.02 | 0.998 | 0.977 | 0.988
NCI-H1792 | 0.423 | 0.424 | 0.402 | 0.278 | 0.176 | – | 0.377 | 0.246 | 0.0941 | 0.13 | 0.558 | 0.727 | 0.59 | 0.515 | 0.352 | 0.392 | 0.486 | 0.359 | 0.686
NCI-H1793 | 0.145 | 0.148 | 0.18 | 0.128 | 0.136 | 0.312 | 0.477 | 0.546 | 0.192 | 0.156 | 0.528 | 0.469 | 0.446 | 0.409 | 0.177 | 0.697 | 0.853 | 1.14 | 0.926
NCI-H1915 | 0.819 | 0.886 | 0.982 | – | 0.624 | 0.359 | 0.388 | 0.404 | – | 0.278 | 0.258 | 0.298 | 0.265 | 0.293 | 0.278 | 1.13 | 1.17 | 1.09 | 1.11
NCI-H1944 | 0.686 | 0.805 | 0.759 | 0.369 | 0.517 | 0.207 | 0.227 | 0.218 | 0.15 | 0.16 | 0.393 | 0.41 | 0.358 | 0.383 | 0.399 | 1.17 | 1.26 | 1.34 | 1.25
NCI-H1975 | 0.25 | 0.227 | 0.187 | 0.143 | 0.116 | 0.386 | 0.463 | 0.421 | 0.224 | 0.127 | 0.368 | 0.401 | 0.386 | 0.31 | 0.19 | 1.14 | 0.99 | 0.92 | 0.812
NCI-H1993 | 0.78 | 1.11 | 0.988 | 0.359 | 0.577 | 0.503 | 0.474 | 0.525 | 0.505 | 0.569 | 0.623 | 0.634 | 0.599 | 0.537 | 0.542 | 0.703 | 0.715 | 0.782 | 0.77
NCI-H2009 | 1.05 | 1.09 | 1.04 | 0.884 | 0.993 | 0.47 | 0.501 | 0.487 | 0.333 | 0.185 | 0.371 | 0.42 | 0.383 | 0.353 | 0.294 | 1.25 | 1.21 | 1.2 | 0.735
NCI-H2023 | 0.807 | 0.608 | 0.801 | 0.41 | 0.144 | 0.374 | 0.444 | 0.464 | 0.312 | 0.163 | 0.246 | 0.254 | 0.247 | 0.127 | 0.195 | 0.764 | 0.723 | 0.768 | 0.686
NCI-H2085 | 0.437 | 0.353 | 0.525 | 0.319 | 0.279 | 0.763 | 0.811 | 0.769 | 0.316 | 0.495 | 0.592 | 0.58 | 0.492 | 0.544 | 0.451 | 0.907 | 0.959 | 0.915 | 0.918
NCI-H2087 | 0.209 | 0.123 | 0.162 | – | 0.124 | 0.487 | 0.569 | 0.556 | – | 0.406 | 0.24 | 0.264 | 0.301 | 0.221 | 0.152 | 0.991 | 0.908 | 0.956 | 0.98
NCI-H2126 | 0.826 | 0.868 | 0.796 | 0.597 | 0.437 | 0.527 | 0.554 | 0.516 | 0.529 | 0.359 | 0.618 | 0.629 | 0.638 | 0.545 | 0.582 | 0.686 | 0.75 | 0.719 | 0.683
NCI-H2347 | 0.521 | 0.16 | 0.553 | 0.307 | 0.272 | 0.493 | 0.417 | 0.43 | 0.26 | 0.235 | 0.666 | 0.645 | 0.594 | 0.631 | 0.562 | 1.1 | 1.03 | 1 | 0.981
NCI-H2405 | 0.651 | 0.954 | 0.766 | 0.26 | 0.241 | 0.399 | 0.427 | 0.402 | 0.284 | 0.195 | 0.703 | 0.814 | 0.756 | 0.615 | 0.369 | 0.987 | 1.06 | 1.04 | 0.611
NCI-H3122 | 0.114 | 0.116 | 0.132 | – | 0.0937 | 0.396 | 0.39 | 0.396 | 0.365 | 0.369 | 0.368 | 0.398 | 0.328 | 0.508 | 0.482 | 1.01 | 1.01 | 1.02 | 1
PC-3 [JPC-3] | 0.743 | 0.708 | 0.903 | 0.485 | 0.509 | 0.466 | 0.515 | 0.526 | 0.413 | 0.377 | 0.912 | 0.898 | 0.974 | 0.747 | 0.62 | 0.898 | 0.99 | 0.963 | 0.955
PC-14 | 0.153 | 0.171 | 0.139 | 0.123 | 0.126 | 0.602 | 0.951 | 0.746 | 0.332 | 0.12 | 0.301 | 0.237 | 0.25 | 0.0789 | 0.0868 | 1.03 | 1.04 | 0.884 | 0.905
